From patent US6156700A, “3-(1,2-Benzisothiazol- and isoxazol-5-yl)-2,4(1H,3H)-pyrimidinedione or thione and 3-(1,2-benzisothiazol- and isoxazol-5-yl)-4(3H)-pyrimidinone or thione herbicidal agents” (American Cyanmid Company, priority 1998, dated 2000)
“And” between values parts separate entries of the source, which are not always exact repeats. Equal values may be shown once.

Experiments:
GALAP = assay: Postemergence herbicidal evaluation; type: in vivo
ORYSAT [1] = assay: Preemergence herbicidal evaluation; type: in vivo, Oryza sativa; design: scale not given here
IPOSS = assay: Postemergence herbicidal evaluation; type: in vivo
AMBEL [2] = assay: Postemergence herbicidal evaluation; type: in vivo
GLXMA = assay: Postemergence herbicidal evaluation; type: in vivo
ABUTH = assay: Preemergence herbicidal evaluation; type: in vivo; design: scale not given here
AMBEL [3] = assay: Preemergence herbicidal evaluation; type: in vivo; design: scale not given here
CASOB = assay: Preemergence herbicidal evaluation; type: in vivo; design: scale not given here
ZEAMX = assay: Preemergence herbicidal evaluation; type: in vivo; design: scale not given here
ORYSAT [4] = assay: Postemergence herbicidal evaluation; type: in vivo, Oryza sativa
GLXMAW [5] = assay: Postemergence herbicidal evaluation; type: in vivo
IPOHE [6] = assay: Postemergence herbicidal evaluation; type: in vivo; details: 0.0625-0.0640 kg/ha
GLXMAW [7] = assay: Preemergence herbicidal evaluation; type: in vivo; design: scale not given here; details: 0.1250 kg/ha
IPOHE [8] = assay: Preemergence herbicidal evaluation; type: in vivo; details: 0.1250 kg/ha

SMILES: Cn1c(C(F)(F)F)cc(=O)n(-c2ccc3snc(-c4ccccc4)c3c2)c1=O [Compound 4, 1-Methyl-3-(3-phenyl-1,2-benzisothiazol-5-yl)-6-(trifluoromethyl)-2,4(1H,3H)-pyrimidinedione]
- herbicidal effect rating (GALAP; 0.0157-0.0160 kg/ha): 4.0
- herbicidal effect rating (GALAP; 0.0313-0.0320 kg/ha): 9.0
- herbicidal effect rating (GALAP; 0.0625-0.0640 kg/ha): 9.0
- herbicidal effect rating (GALAP; 0.1250 kg/ha): 9.0
- herbicidal effect rating (GALAP; 0.2500 kg/ha): 9.0
- herbicidal effect rating (GALAP; 0.5000 kg/ha): 9.0
- herbicidal effect rating (ORYSAT [1]; 0.0313-0.0320 kg/ha): 7.0
- herbicidal effect rating (ORYSAT [1]; 0.0620-0.0630 kg/ha): 7.0
- herbicidal effect rating (ORYSAT [1]; 0.1250 kg/ha): 7.0
- herbicidal effect rating (ORYSAT [1]; 0.2500 kg/ha): 7.0
- herbicidal effect rating (ORYSAT [1]; 0.5000 kg/ha): 7.0
- herbicidal effect rating (IPOSS; 0.0313-0.0320 kg/ha): 7.0
- herbicidal effect rating (IPOSS; 0.0625-0.0640 kg/ha): 9.0
- herbicidal effect rating (IPOSS; 0.1250 kg/ha): 9.0
- herbicidal effect rating (IPOSS; 0.2500 kg/ha): 9.0
- herbicidal effect rating (IPOSS; 0.5000 kg/ha): 9.0
- herbicidal effect rating (AMBEL [2]; 0.0157-0.0160 kg/ha): 9.0
- herbicidal effect rating (AMBEL [2]; 0.0313-0.0320 kg/ha): 7.0
- herbicidal effect rating (AMBEL [2]; 0.0625-0.0640 kg/ha): 9.0
- herbicidal effect rating (AMBEL [2]; 0.1250 kg/ha): 9.0
- herbicidal effect rating (AMBEL [2]; 0.2500 kg/ha): 9.0
- herbicidal effect rating (AMBEL [2]; 0.5000 kg/ha): 9.0
- herbicidal effect rating (GLXMA; 0.0157-0.0160 kg/ha): 6.0
- herbicidal effect rating (GLXMA; 0.0313-0.0320 kg/ha): 5.0
- herbicidal effect rating (GLXMA; 0.0625-0.0640 kg/ha): 4.0
- herbicidal effect rating (GLXMA; 0.1250 kg/ha): 7.0
- herbicidal effect rating (GLXMA; 0.2500 kg/ha): 9.0
- herbicidal effect rating (GLXMA; 0.5000 kg/ha): 9.0
- herbicidal effect rating (ABUTH; 0.0313-0.0320 kg/ha): 9.0
- herbicidal effect rating (ABUTH; 0.0620-0.0630 kg/ha): 9.0
- herbicidal effect rating (ABUTH; 0.1250 kg/ha): 9.0
- herbicidal effect rating (ABUTH; 0.2500 kg/ha): 9.0
- herbicidal effect rating (ABUTH; 0.5000 kg/ha): 9.0
- herbicidal effect rating (AMBEL [3]; 0.0313-0.0320 kg/ha): 7.0
- herbicidal effect rating (AMBEL [3]; 0.0620-0.0630 kg/ha): 7.0
- herbicidal effect rating (AMBEL [3]; 0.1250 kg/ha): 9.0
- herbicidal effect rating (AMBEL [3]; 0.2500 kg/ha): 9.0
- herbicidal effect rating (AMBEL [3]; 0.5000 kg/ha): 9.0
- herbicidal effect rating (CASOB; 0.0313-0.0320 kg/ha): 7.0
- herbicidal effect rating (CASOB; 0.0620-0.0630 kg/ha): 7.0
- herbicidal effect rating (CASOB; 0.1250 kg/ha): 6.0
- herbicidal effect rating (CASOB; 0.2500 kg/ha): 9.0
- herbicidal effect rating (CASOB; 0.5000 kg/ha): 9.0
- herbicidal effect rating (ZEAMX; 0.0313-0.0320 kg/ha): 3.0
- herbicidal effect rating (ZEAMX; 0.0620-0.0630 kg/ha): 7.0
- herbicidal effect rating (ZEAMX; 0.1250 kg/ha): 7.0
- herbicidal effect rating (ZEAMX; 0.2500 kg/ha): 7.0
- herbicidal effect rating (ZEAMX; 0.5000 kg/ha): 7.0
- herbicidal effect rating (ORYSAT [4]; 0.0157-0.0160 kg/ha): 2.0
- herbicidal effect rating (ORYSAT [4]; 0.0313-0.0320 kg/ha): 2.0
- herbicidal effect rating (ORYSAT [4]; 0.0625-0.0640 kg/ha): 2.0
- herbicidal effect rating (ORYSAT [4]; 0.1250 kg/ha): 3.0
- herbicidal effect rating (ORYSAT [4]; 0.2500 kg/ha): 3.0
- herbicidal effect rating (ORYSAT [4]; 0.5000 kg/ha): 4.0

SMILES: Cc1nsc2ccc(-n3c(=O)cc(C(F)(F)F)n(C)c3=O)cc12 [Compound 6, 1-Methyl-3-(3-methyl-1,2-benzisothiazol-5-yl)-6-(trifluoromethyl)-2,4(1H,3H)-pyrimidinedione]
- herbicidal effect rating (GALAP; 0.0625-0.0640 kg/ha): 9.0 and 5.0
- herbicidal effect rating (GALAP; 0.1250 kg/ha): 9.0
- herbicidal effect rating (GALAP; 0.2500 kg/ha): 9.0
- herbicidal effect rating (GALAP; 0.5000 kg/ha): 9.0
- herbicidal effect rating (ORYSAT [1]; 0.0156-0.0160 kg/ha): 2.8 and 4.0
- herbicidal effect rating (ORYSAT [1]; 0.0313-0.0320 kg/ha): 4.4 and 7.0
- herbicidal effect rating (ORYSAT [1]; 0.0620-0.0630 kg/ha): 7.0
- herbicidal effect rating (ORYSAT [1]; 0.1250 kg/ha): 8.0
- herbicidal effect rating (ORYSAT [1]; 0.2500 kg/ha): 8.0
- herbicidal effect rating (ORYSAT [1]; 0.5000 kg/ha): 9.0
- herbicidal effect rating (GLXMAW [5]; 0.0157-0.0160 kg/ha): 5.5 and 3.0
- herbicidal effect rating (GLXMAW [5]; 0.0313-0.0320 kg/ha): 5.5 and 3.8 and 7.0
- herbicidal effect rating (GLXMAW [5]; 0.0625-0.0640 kg/ha): 6.0 and 4.8 and 7.0
- herbicidal effect rating (GLXMAW [5]; 0.1250 kg/ha): 7.0
- herbicidal effect rating (GLXMAW [5]; 0.2500 kg/ha): 7.0
- herbicidal effect rating (IPOSS; 0.0157-0.0160 kg/ha): 7.5 and 7.0
- herbicidal effect rating (IPOSS; 0.0313-0.0320 kg/ha): 9.0 and 8.0
- herbicidal effect rating (IPOSS; 0.0625-0.0640 kg/ha): 9.0
- herbicidal effect rating (IPOSS; 0.1250 kg/ha): 9.0
- herbicidal effect rating (IPOSS; 0.2500 kg/ha): 9.0
- herbicidal effect rating (IPOSS; 0.5000 kg/ha): 9.0
- herbicidal effect rating (AMBEL [2]; 0.0313-0.0320 kg/ha): 9.0 and 6.0 and 8.0
- herbicidal effect rating (AMBEL [2]; 0.0625-0.0640 kg/ha): 9.0 and 6.5
- herbicidal effect rating (AMBEL [2]; 0.1250 kg/ha): 9.0
- herbicidal effect rating (AMBEL [2]; 0.2500 kg/ha): 9.0
- herbicidal effect rating (AMBEL [2]; 0.5000 kg/ha): 9.0
- herbicidal effect rating (GLXMA; 0.0157-0.0160 kg/ha): 2.5 and 4.0
- herbicidal effect rating (GLXMA; 0.0313-0.0320 kg/ha): 5.0 and 4.0
- herbicidal effect rating (GLXMA; 0.0625-0.0640 kg/ha): 4.0
- herbicidal effect rating (GLXMA; 0.1250 kg/ha): 6.0
- herbicidal effect rating (GLXMA; 0.2500 kg/ha): 6.0
- herbicidal effect rating (GLXMA; 0.5000 kg/ha): 7.0
- herbicidal effect rating (IPOHE [6]): 9.0 and 5.0
- herbicidal effect rating (ABUTH; 0.0313-0.0320 kg/ha): 9.0 and 4.5
- herbicidal effect rating (ABUTH; 0.0620-0.0630 kg/ha): 9.0
- herbicidal effect rating (ABUTH; 0.1250 kg/ha): 9.0
- herbicidal effect rating (ABUTH; 0.2500 kg/ha): 9.0
- herbicidal effect rating (ABUTH; 0.5000 kg/ha): 9.0
- herbicidal effect rating (GLXMAW [7]): 0.0
- herbicidal effect rating (AMBEL [3]; 0.0313-0.0320 kg/ha): 7.4 and 9.0 and 4.5
- herbicidal effect rating (AMBEL [3]; 0.0620-0.0630 kg/ha): 9.0 and 6.0
- herbicidal effect rating (AMBEL [3]; 0.1250 kg/ha): 7.0
- herbicidal effect rating (AMBEL [3]; 0.2500 kg/ha): 9.0
- herbicidal effect rating (AMBEL [3]; 0.5000 kg/ha): 9.0
- herbicidal effect rating (CASOB; 0.0313-0.0320 kg/ha): 6.0 and 9.0 and 4.5
- herbicidal effect rating (CASOB; 0.0620-0.0630 kg/ha): 7.0 and 5.5
- herbicidal effect rating (CASOB; 0.1250 kg/ha): 6.5
- herbicidal effect rating (CASOB; 0.2500 kg/ha): 9.0
- herbicidal effect rating (CASOB; 0.5000 kg/ha): 9.0
- herbicidal effect rating (ZEAMX; 0.0313-0.0320 kg/ha): 4.2 and 7.5 and 5.3
- herbicidal effect rating (ZEAMX; 0.0620-0.0630 kg/ha): 8.0 and 6.0
- herbicidal effect rating (ZEAMX; 0.1250 kg/ha): 6.5
- herbicidal effect rating (ZEAMX; 0.2500 kg/ha): 9.0
- herbicidal effect rating (ZEAMX; 0.5000 kg/ha): 9.0
- herbicidal effect rating (ORYSAT [4]; 0.0313-0.0320 kg/ha): 1.5 and 1.0
- herbicidal effect rating (ORYSAT [4]; 0.0625-0.0640 kg/ha): 1.0 and 1.8 and 1.5
- herbicidal effect rating (ORYSAT [4]; 0.1250 kg/ha): 4.5
- herbicidal effect rating (ORYSAT [4]; 0.2500 kg/ha): 5.0
- herbicidal effect rating (ORYSAT [4]; 0.5000 kg/ha): 5.0
- herbicidal effect rating (IPOHE [8]): 3.0
